This passage reports logP results from the SangsterLogP compilation.

Structures are written as SMILES.

A word on the logP: it is the decadic logarithm of the partition coefficient of the neutral form, usually between octanol and water. Consider `CS(=O)(=O)N[C@H]1CC[C@H](CCN2CCN(c3cccc(Cl)c3Cl)CC2)CC1`, for which the logP stood at 4.03.
The same measure for `O=C(NCCCCN1CCC(c2cccc(C(F)(F)F)c2)CC1)c1ccc(Br)cc1`: 4.28; for `N#Cc1cc(N2CCN(CCCCNC(=O)C=Cc3cccnc3)CC2)cc(C(F)(F)F)c1`: 3.62.
The figure for `O=C(NCCCCN1CCC(Nc2cccc(C(F)(F)F)c2)CC1)c1ccc(Br)cc1` is 3.76; for `CCC(O)NC1CCC(CCN2CCN(c3cccc(Cl)c3Cl)CC2)CC1` (stereo not given) it is 4.29; for `O=C(Nc1ccc2[nH]c(=O)oc2c1)C(=O)N1CCC(Cc2ccccc2)CC1` it is 3.78.
For the compound `N#Cc1cc(N2CCN(CCCCNC(=O)c3cnc4ccccc4c3)CC2)cc(C(F)(F)F)c1`, the logP stood at 4.55.
The same measure for `O=C(CNc1ccc2[nH]c(=O)[nH]c2c1)N1CCC(Cc2ccc(F)cc2)CC1`: 3.21; for `CC(=O)NC1CCC(CCN2CCN(c3cccc(Cl)c3Cl)CC2)CC1` (stereo not given): 4.18.
The same measure for `O=C(NCCCCN1CCC(Oc2cccc(C(F)(F)F)c2)CC1)c1ccnc2ccccc12`: 4.22.
